Paper PMC9229843, “Cancer-Related Somatic Mutations in Transmembrane Helices Alter Adenosine A1 Receptor Pharmacology” (Molecules, 2022)
Substitutions are numbered along the chain they refer to.

What was measured:
Experiment in all cases: yeast liquid growth assay
Type in all cases: cell-based
hA1AR A20T^1.43 = biological target: T1, hA1AR A20T^1.43 (Homo sapiens, UniProt P30542, A20T); conditions: ratio over basal activity of wild type hA1AR, 7 mM 3-AT
T1 construct: expressed in transfected cells; host or cells: S. cerevisiae MMY24
T1 sequence (P30542 1-326 A20T): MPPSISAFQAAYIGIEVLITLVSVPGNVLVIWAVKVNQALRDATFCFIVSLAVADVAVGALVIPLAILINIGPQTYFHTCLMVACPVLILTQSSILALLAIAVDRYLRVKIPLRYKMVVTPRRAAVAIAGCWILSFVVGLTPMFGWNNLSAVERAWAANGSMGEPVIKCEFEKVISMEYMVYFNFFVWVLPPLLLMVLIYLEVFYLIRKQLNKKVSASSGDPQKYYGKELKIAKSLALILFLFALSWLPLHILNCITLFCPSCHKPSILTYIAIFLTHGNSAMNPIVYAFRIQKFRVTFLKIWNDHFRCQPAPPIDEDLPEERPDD
Description: (§1) The plasmids, pDT-PGK_hA1AR, containing either wild type or mutated hA1AR were transformed into a MMY24 S. cerevisiae strain following the lithium acetate procedure.
(§2) In order to characterize the mutant hA1ARs, liquid growth assays in 96-well plates were performed to obtain concentration–growth curves as previously described. […] The overnight cultures were then diluted to 40,000 cells/mL (OD600 ≈ 0.02) in a selective medium without uracil, leucine, and histidine (YNB-ULH). For the determination of constitutive activity, 50 μL of yeast cells and 150 μL of YNB-ULH medium containing different concentrations of 3-AT and 0.8 IU/mL ADA were then added to each well. To obtain concentration–growth curves, 2 μL of various concentrations of ligands, 50 μL of yeast cells, and 150 μL of YNB-ULH medium containing 7 mM 3-AT and 0.8 IU/mL ADA were then added to each well. After incubation at 30 °C for 35 h in a Genios plate reader (TECAN, Zürich, Switzerland) with shaking for 1 min at 300 rpm every 10 min, the optical density was measured at a wavelength of 595 nm, which represented the level of yeast cell growth.
(§3) All experimental data were analyzed by GraphPad Prism 7.0 or 8.0 (GraphPad Software Inc., San Diego, CA, USA). Data from yeast liquid growth and [^35S]GTPγS binding assays were analyzed by non-linear regression using “log (agonist) vs. response (three parameters)” or “log (inhibitor) vs. response (three parameters)” to obtain potency (EC50), inhibitory potency (IC50), and efficacy (Emax or Imax) values. The radioligand displacement curves were obtained from a statistically preferred one-site or two-site binding model. pKi values were calculated from pIC50 values using the Cheng–Prusoff equation, where KD values were obtained from the homologous competition assays from this study and calculated by non-linear regression using “one site–homologous” [62].

hA1AR T257P^6.58 = biological target: T2, hA1AR T257P^6.58 (Homo sapiens, UniProt P30542, T257P); conditions: result in words
T2 construct: expressed in transfected cells; host or cells: S. cerevisiae MMY24
T2 sequence (P30542 1-326 T257P): T1 sequence (P30542 1-326 A20T) with T20A, T257P
Description: as §1, §2, §3

hA1AR P86L^3.31 = biological target: T3, hA1AR P86L^3.31 (Homo sapiens, UniProt P30542, P86L); conditions: result in words
T3 construct: expressed in transfected cells; host or cells: S. cerevisiae MMY24
T3 sequence (P30542 1-326 P86L): T1 sequence (P30542 1-326 A20T) with T20A, P86L
Description: as §1, §2, §3

hA1AR A52V^2.47 = biological target: T4, hA1AR A52V^2.47 (Homo sapiens, UniProt P30542, A52V)
T4 construct: expressed in transfected cells; host or cells: S. cerevisiae MMY24
T4 sequence (P30542 1-326 A52V): T1 sequence (P30542 1-326 A20T) with T20A, A52V
Description: as §1, §2, §3

hA1AR H78L^3.23 = biological target: T5, hA1AR H78L^3.23 (Homo sapiens, UniProt P30542, H78L)
T5 sequence (P30542 1-326 H78L): T1 sequence (P30542 1-326 A20T) with T20A, H78L
Description: as §1, §2, §3

**Q.** What does the source list for OC[C@H]1O[C@@H](n2cnc3c(NC4CCCC4)ncnc32)[C@H](O)[C@@H]1O [CPA, N^6-cyclopentyladenosine]?
**A.** Emax (hA1AR A20T^1.43): 4.23 ± 0.60; agonist-induced receptor activation (hA1AR T257P^6.58): could not be activated; agonist-induced receptor activation (hA1AR P86L^3.31): could not be activated; decrease in potency versus wild type hA1AR (hA1AR A52V^2.47): more than 400 fold; Emax (hA1AR H78L^3.23; ratio over basal activity of wild type hA1AR, 7 mM 3-AT): 4.15 ± 0.17; agonist-induced receptor activation (hA1AR H78L^3.23; result in words): further activation could not be obtained
